# From paper PMC9194936, “Preclinical Activity and Pharmacokinetic/Pharmacodynamic Relationship for a Series of Novel Benzenesulfonamide Perforin Inhibitors” (ACS Pharmacology & Translational Science, 2022)
# “And” between values parts separate entries of the source, which are not always exact repeats. Equal entries are not always repeated.
# Target: T1, perforin (Mus musculus, UniProt P10820)
# T1 construct: endogenous in cells; host or cells: recipient cytotoxic lymphocytes (NK/CTL) of wild-type C57BL/6 mice, in vivo
# T1 sequence (P10820 21-554): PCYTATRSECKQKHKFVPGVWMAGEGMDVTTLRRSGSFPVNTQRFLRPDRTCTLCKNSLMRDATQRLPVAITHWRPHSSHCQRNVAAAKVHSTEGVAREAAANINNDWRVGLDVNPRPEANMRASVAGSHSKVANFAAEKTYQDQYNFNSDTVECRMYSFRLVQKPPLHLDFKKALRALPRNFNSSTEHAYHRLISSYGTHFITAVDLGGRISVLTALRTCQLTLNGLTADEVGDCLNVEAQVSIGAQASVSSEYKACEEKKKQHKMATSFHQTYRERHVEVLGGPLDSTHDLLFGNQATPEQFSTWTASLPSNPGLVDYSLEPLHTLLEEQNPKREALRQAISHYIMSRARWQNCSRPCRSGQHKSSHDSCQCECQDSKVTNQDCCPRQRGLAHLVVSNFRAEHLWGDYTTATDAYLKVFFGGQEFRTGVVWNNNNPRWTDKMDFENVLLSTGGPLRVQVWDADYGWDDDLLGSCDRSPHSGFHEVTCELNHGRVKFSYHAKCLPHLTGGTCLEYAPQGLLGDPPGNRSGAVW
# Experiment: In vivo perforin inhibition (allogeneic bone marrow transfer assay)
# Protocol: This model was selected as a surrogate assay for graft rejection during allogeneic bone marrow/stem cell transplantation to enable rapid testing of perforin inhibition in vivo. Mice were transplanted with a mixture of equal numbers of allogeneic immunologically mismatched and syngeneic immunologically matched bone marrow. […] Allogeneic cell survival in spleen and peripheral blood was determined 24 h after transplant, using C57BL/6 perforin-deficient mice (100% perforin inhibition) and untreated C57BL/6 mice (0% perforin inhibition) as controls.
# Compounds were tested for in vivo efficacy as described previously.[14] Age- (8–12 weeks) and sex-matched wild-type (H-2D^b, CD45.2^+) or perforin-deficient C57BL/6 mice (C57BL/6-Prf1^tm1Sdz/J; H-2D^b, CD45.2^+) received 12 ×10^6 bone marrow cells from both allogeneic BALB/c (H-2D^d) MHC-mismatched and syngeneic C57BL/6 (H-2D^b) MHC-matched mice (24 × 10^6 cells total). The wild-type recipient mice were treated with perforin inhibitor compounds by intraperitoneal injection in 20% hydroxypropyl-β-cyclodextrin vehicle (10 mL/kg), or with vehicle alone; perforin-deficient mice remained untreated. The mice were euthanized 24 h after bone marrow transfer for peripheral blood mononuclear cell (PBMC) and spleen collection.
# Throughout the study, we utilized two strategies to distinguish between recipient, donor allogeneic, and donor syngeneic cells based on either fluorescent labeling prior to transplant or congenic marker expression (CD45.1/CD45.2). In the fluorescent dye approach, allogeneic wild-type BALB/c (H-2D^d, CD45.2^+) bone marrow was labeled with 1 μM carboxyfluorescein succinimidyl ester (CFSE) prior to mixing with syngeneic bone marrow from C57BL/6 congenic mice (CD45.1^+). Twenty-four hours after cell transfer, the harvested cells were stained with anti-CD45.1-phycoerythrin and anti-TER119-allophycocyanin monoclonal antibodies (BioLegend, San Diego, CA). TER119 was used for erythroid exclusion prior to the identification of allogeneic (CFSE^+) and syngeneic (CD45.1^+) donor cells. Using a second purely congenic marker approach, allogeneic BALB/c congenic (H-2D^d, CD45.1^+) bone marrow was mixed with syngeneic C57BL/6 double congenic (H-2D^b, CD45.1^+CD45.2^+) bone marrow prior to transfer. The harvested cells were stained with anti-CD45.1-phycoerythrin, anti-CD45.2-phycoerythrin-cyanine-7, and anti-TER119-allophycocyanin monoclonal antibodies (BioLegend, San Diego, CA). TER119 was used for erythroid exclusion, prior to identification of allogeneic donor (CD45.1^+), syngeneic donor (CD45.1^+ CD45.2^+), and recipient (CD45.2^+) cells. Dead cells were excluded using 7-aminoactinomycin D. Samples were acquired with an LSR Fortessa (BD Biosciences) and analyzed using FlowJo version 9 software (BD Biosciences). Prism version 9 (GraphPad) was used to calculate CTL indices as the percentage survival of syngeneic donor cells divided by the percentage survival of allogeneic donor cells. […] In vivo perforin inhibition animal experiments were approved by the Animal Ethics Committee of the QIMR Berghofer Medical Research Institute.
# [1] = 80 mg/kg bid (0 and 18 h), pooled with pretransplant dosing data
# [2] = 120 mg/kg bid (0 and 18 h), pooled with pretransplant dosing data
# [3] = 160 mg/kg bid (0 and 18 h), pooled with pretransplant dosing data
# [4] = 160 mg/kg qd x 4 (0, 24, 48 h prior to and 18 h after transfer), 24 h after transplant
smiles,measurement,setting,value
"CN1Cc2cc(-c3ccc(-c4cncc(NS(=O)(=O)c5ccccc5[N+](=O)[O-])c4)s3)ccc2C1=O [Compound 1, N-{5-[5-(2-methyl-1-oxo-2,3-dihydro-1H-isoindol-5-yl)-2-thienyl]-3-pyridinyl}-2-nitrobenzenesulfonamide]","% perforin inhibition, blood",[1],-0.71%
same,"% perforin inhibition, spleen",[1],7.66%
same,"% perforin inhibition, blood",80 mg/kg qd (one dose at 0 h),-5.19%
same,"% perforin inhibition, spleen",80 mg/kg qd (one dose at 0 h),-4.19%
same,"% perforin inhibition, spleen","80 mg/kg qd x 4 (0, 24, 48 h prior to and 18 h after transfer), 24 h after transplant",7.66% and 7%
same,"% perforin inhibition, blood","80 mg/kg qd x 4, 24 h after transplant",26.33% and 26%
same,"% perforin inhibition, blood","80 mg/kg tid (0, 9 and 18 h)",-1.34%
same,"% perforin inhibition, spleen","80 mg/kg tid (0, 9 and 18 h)",-1.98%
same,"% perforin inhibition, blood",[2],43.66%
same,"% perforin inhibition, spleen",[2],30.50%
same,perforin inhibition in vivo (in words),120 mg/kg followed by two doses of 80 mg/kg,moderate perforin inhibition
same,"% perforin inhibition, blood",120 mg/kg qd (one dose at 0 h),17.84%
same,"% perforin inhibition, spleen",120 mg/kg qd (one dose at 0 h),16.71%
same,"% perforin inhibition, spleen","120 mg/kg qd x 4 (0, 24, 48 h prior to and 18 h after transfer), 24 h after transplant",39.90% and 40%
same,"% perforin inhibition, blood","120 mg/kg qd x 4, 24 h after transplant",44.84% and 45%
same,"% perforin inhibition, blood","120 mg/kg tid (0, 9 and 18 h)",69.14%
same,"% perforin inhibition, spleen","120 mg/kg tid (0, 9 and 18 h)",40.42%
same,"% perforin inhibition, blood",[3],56.50%
same,"% perforin inhibition, spleen",[3],42.46%
same,"% perforin inhibition, spleen",[4],48.20% and 48%
same,"% perforin inhibition, blood","160 mg/kg qd x 4, 24 h after transplant",55.47% and 55%
same,"% perforin inhibition, blood",120+80+80 mg/kg tid,34.71%
same,"% perforin inhibition, spleen",120+80+80 mg/kg tid,15.22%
same,perforin inhibition in vivo (in words),three doses of 80 mg/kg,ineffective
same,perforin inhibition in vivo (in words),three doses of 120 mg/kg,highly active
"O=C1NCc2ccc(-c3ccc(-c4cncc(NS(=O)(=O)c5ccc(F)cc5F)c4)s3)cc21 [Compound 7, 2,4-difluoro-N-{5-[5-(3-oxo-2,3-dihydro-1H-isoindol-5-yl)-2-thienyl]-3-pyridinyl}benzenesulfonamide]","% perforin inhibition, spleen",[4],26.55%
